We go through 2 compounds from patent US4147797A, “Spiro-furanohydantoin derivatives” (Pfizer Inc., priority 1978, dated 1979).

Assay [1] deals with T1, aldose reductase (Bos taurus, UniProt P16116).
T1 construct: partially purified aldose reductase enzyme obtained from calf lens; from tissue; host or cells: calf lens
As to the kind of experiment: inhibition of aldose reductase enzyme activity (partially purified enzyme from calf lens). The following applies: read-out: 50% Inhibitory Concentration. Type of assay: biochemical. The source says:
The activity of the compounds of the present invention as agents for the control of chronic diabetic complications may be determined by a number of standard biological or pharmacological tests. Suitable tests include (1) measuring their ability to inhibit the enzyme activity of isolated aldose reductase and (2) measuring their ability to reduce or inhibit sorbitol accumulation in the sciatic nerve of acutely streptozotocinized (i.e., diabetic) rats. […] Pat. No. 3,821,383 and based on the procedure on Hayman et. al., Journal of Biological Chemistry, 240, 877 (1965). The substrate employed was partially purified aldose reductase enzyme obtained from calf lens.

Assay [2] has as its system sorbitol accumulation in the sciatic nerve of streptozotocinized (i.e., diabetic) rats. As to the kind of experiment: inhibition of sorbitol accumulation in the sciatic nerve of streptozotocinized (diabetic) rats. Type of assay: in vivo. The following applies: 25 mg/kg oral at 4, 8 and 24 hours after streptozotocin; sorbitol measured 27 hours after induction of diabetes; compared to untreated animals. On the procedure:
The activity of the compounds of the present invention as agents for the control of chronic diabetic complications may be determined by a number of standard biological or pharmacological tests. Suitable tests include (1) measuring their ability to inhibit the enzyme activity of isolated aldose reductase and (2) measuring their ability to reduce or inhibit sorbitol accumulation in the sciatic nerve of acutely streptozotocinized (i.e., diabetic) rats.
The compounds of Examples 1 and 2 were tested for their ability to reduce or inhibit sorbitol accumulation in the sciatic nerve of streptozotocinized (i.e., diabetic) rats by the procedure essentially described in U.S. Pat. No. 3,821,383. In the present study, the amount of sorbitol accumulation in the sciatic nerves was measured 27 hours after induction of diabetes. The compounds were administered orally at the dose levels indicated at 4, 8 and 24 hours following the administration of streptozotocin. The results obtained in this manner are presented as the percent inhibition (%) obtained at a 25 mg/kg dose compared to the untreated animal standard (i.e., the untreated animal where sorbitol levels normally rise from approximately 50-100 mM/g. tissue to as high as 400 mM/g. tissue in the 27-hour test period): […]

For `O=C1NC(=O)C2(CCCc3occc32)N1` (stereo not shown) [Example 1, Spiro[cyclohexa(b)furan-4,4'-imidazolidine]-2',5'-dione], the IC50 in assay [1] is 100 µM. The “Percent Inhibition at 25 mg/kg” value in assay [2] is listed as 46%.
As for `Cc1cc2c(o1)CCCC21NC(=O)NC1=O` (stereo not shown) [Example 2, 2-methyl-spiro[cyclohexa(b)furan-4,4'-imidazolidine]-2',5'-dione], the IC50 in assay [1] came to 100 µM. For the same compound, the “Percent Inhibition at 25 mg/kg” value in assay [2] amounted to 2%.
